In article PMC9144521 (Viruses, 2022):
Where a name gives a salt, the structure may show the parent alone.

How the values were obtained:
AdV3 = assay: Anti-AdV activity assay (IFA of hexon), secondary screen, AdV3; format: cell-based, Human adenoviruses type 3; conditions: for Selective Index AdV3: CC50/EC50, Vero cells; for EC50: Vero cells, 48 h, IFA of hexon, 0.02 to 5 μM
AdV5 = assay: Anti-AdV activity assay (IFA of hexon), secondary screen, AdV5; format: cell-based, Human adenoviruses type 5; conditions: for Selective Index AdV5: CC50/EC50, Vero cells; for EC50: Vero cells, 48 h, IFA of hexon, 0.02 to 5 μM
in vitro = conditions: African green monkey

EC50 (AdV3) [nM]	EC50 (AdV5) [nM]	Molecule	Selective Index AdV3 (AdV3)	Selective Index AdV5 (AdV5)	CC50 at 48 h (in vitro) [nM]	CC50 at 48 h (in vitro; Vero cells) [nM]	CC50 (Vero cells) [nM]
80	180	CC(C)c1cc(C(=O)N2Cc3ccc(CN4CCN(C)CC4)cc3C2)c(O)cc1O [AT13387]	>61.84	>27.13		> 5000	
180	230	CCNC(=O)c1noc(-c2cc(C(C)C)c(O)cc2O)c1-c1ccc(CN2CCOCC2)cc1 [AUY922]	>28.56	>22.11	> 5000		
20	70	CNC(=O)c1cccc(-c2ccc3c(N4CCOC[C@@H]4C)nc(N4CCOC[C@@H]4C)nc3n2)c1 [AZD2014]	171.31	56.82	4050		
110	160	COc1ccc(-c2ccc3c(N4CCOC[C@@H]4C)nc(N4CCOC[C@@H]4C)nc3n2)cc1CO [AZD8055]	>44.72	>31.87	> 5000		
3970	1800	S=C(NCc1ccc2c(c1)OCO2)N1CCN(c2ncnc3c2oc2ccccc23)CC1 [Amuvatinib]	2.10	4.64		> 5000	
320	3600	N#CC1(c2ccc(NC(=O)c3cccnc3NCc3ccncc3)cc2)CCCC1 [Apatinib]	>15.41	>1.39	> 5000		
100	240	COc1c(C)cnc(Cn2cnc3c(Cl)nc(N)nc32)c1C [BIIB021]	>48.73	>21.2	> 5000		
640	600	CCCCOc1c(C(=O)c2c(F)cc(C)cc2F)c[nH]c2nncc1-2 [BMS-265246]	>7.84	>8.35		> 5000	
1110	1380	CO[C@H]1CC[C@H](N2C(=O)CNc3ncc(-c4ccc(C(C)(C)O)nc4)nc32)CC1 [CC-223]	>4.50	>3.62		> 5000	
90	650	NC(=O)CCCSc1nc(N)nc(-c2c(Cl)cc3c4c(cccc24)COC3)n1 [CH5138303]					
770	1640	COc1cc2ncnc(Nc3ccc(F)c(Cl)c3)c2cc1NC(=O)/C=C/CN1CCCCC1 [Dacomitinib]	6.31	2.97		4880	
510	> 5000	C#Cc1cccc(Nc2ncnc3cc(OCCOC)c(OCCO)cc23)c1.Cl [DesMethyl Erlotinib]	>9.72				> 5000
350	> 5000	Cc1ccc(-n2nc(C(C)(C)C)cc2NC(=O)Nc2ccc(OCCN3CCOCC3)c3ccccc23)cc1 [Doramapimod]	>14.24		> 5000		
1380	2620	CCNC(=O)Nc1ccc(-c2nc3c(c(N4CCOC[C@@H]4C)n2)CCN(C2COC2)C3)cc1 [GDC-0349]	>3.63	>1.91		> 5000	
80	270	Cc1c(CN2CCN(C(=O)[C@H](C)O)CC2)sc2c(N3CCOCC3)nc(-c3cnc(N)nc3)nc12 [GDC-0980]	36.44	10.96	3000		
1480	> 5000	COC1=C2C[C@@H](C)C[C@H](OC)[C@H](O)[C@@H](C)/C=C(\C)[C@H](OC(N)=O)[C@@H](OC)/C=C\C=C(/C)C(=O)NC(=CC1=O)C2=O [Geldanamycin]	>3.38		> 5000		
620	1230	Cn1c2ccccc2c2c3c(c4c5ccccc5n(CCC#N)c4c21)CNC3=O [Go6976]	6.39	3.22		3950	
10	10	CC(C)n1nc(-c2ccc3oc(N)nc3c2)c2c(N)ncnc21 [INK 128]	161.78	61.27		850	
100	520	O=C(/C=C\n1cnc(-c2cc(C(F)(F)F)cc(C(F)(F)F)c2)n1)NNc1cnccn1 [KPT-330]	15.45	3.04	1580		

EC50 (AdV3) [nM]	EC50 (AdV5) [nM]	Molecule	Selective Index AdV3 (AdV3)	Selective Index AdV5 (AdV5)	CC50 at 48 h (in vitro) [nM]	CC50 at 48 h (in vitro; Vero cells) [nM]	CC50 (Vero cells) [nM]
3660	1280	O=C(c1ccc(/C=C/c2n[nH]c3ccccc23)cc1)N1CCNCC1 [KW-2449]	>1.37	>3.91	> 5000		
900	1310	CO[C@@H](C)Cn1c(=O)n(C)c2cnc3ccc(-c4cncc(C(C)(C)O)c4)cc3c21 [LY3023414]	>5.58	>3.83	> 5000		
1840	190	COc1c(C)c2c(c(O)c1C/C=C(\C)CCC(=O)OCCN1CCOCC1)C(=O)OC2 [Mycophenolate Mofetil]	>2.72	>25.83		> 5000	
920	4940	CN1CCC(NC(=O)c2cc(-c3c(O)cc(O)cc3Oc3ccc([N+](=O)[O-])cc3)on2)CC1 [NMS-E973]					
2910	1620	CN1CCN(c2ccc(Nc3ncc4cc(C#N)c(=O)n(C5CCCC5)c4n3)cc2)CC1 [ON123300]	>1.72	>3.08		> 5000	
1380	2400	COc1cccc2cc(-c3nc([C@H]4CC[C@H](C(=O)O)CC4)n4ncnc(N)c34)[nH]c12 [OSI-027]	>3.62	>2.08	> 5000		
540	2260	Cc1nc(Nc2[nH]nc3c2CN(C(=O)N[C@H](CN(C)C)c2ccccc2)C3(C)C)c2sccc2n1 [PF-3758309]	>9.29	>2.22		> 5000	
190	400	CC1(C)CC(=O)c2c(C(F)(F)F)nn(-c3ccc(C(N)=O)c(N[C@H]4CC[C@H](OC(=O)CN)CC4)c3)c2C1 [PF-04929113]	>26.61	>12.46	> 5000		
20	1580	CNC(=O)c1ccc(C)c(-n2c(C)cc(OCc3ccc(F)cc3F)c(Br)c2=O)c1 [PH-797804]	>250.00	>3.16	> 5000		
740	2200	CC(C)NCCCn1c(Sc2cc3c(cc2I)OCO3)nc2c(N)ncnc21 [PU-H71]	>6.79	>2.27		> 5000	
230	1060	COc1cc(Nc2ncc(F)c(Nc3ccc4c(n3)N(COP(=O)(O)O)C(=O)C(C)(C)O4)n2)cc(OC)c1OC [R788]	6.65	1.48		1560	
1280	> 5000	Cn1c(Nc2ccc(C(F)(F)F)cc2)nc2cc(Oc3ccnc(-c4ncc(C(F)(F)F)[nH]4)c3)ccc21 [RAF265]	>3.91		> 5000		
440	1500	CNC(=O)c1cc(Oc2ccc(NC(=O)Nc3ccc(Cl)c(C(F)(F)F)c3)c(F)c2)ccn1 [Regorafenib]	9.30	2.72		4060	
170	330	CC1(C)CC(=O)c2c(C(F)(F)F)nn(-c3ccc(C(N)=O)c(N[C@H]4CC[C@H](O)CC4)c3)c2C1 [SNX-2112]	>28.87	>15.09		> 5000	
50	50	CC(C)c1cc(-c2n[nH]c(=O)n2-c2ccc3c(ccn3C)c2)c(O)cc1O [STA-9090]	97.56	76.73		4440	
310	90	Nc1ccc(-c2ccc3ncc4ccc(=O)n(-c5cccc(C(F)(F)F)c5)c4c3c2)cn1 [Torin 2]					
1630	940	COc1cccc(-c2ccc(NC(=O)C3=C(C(=O)O)CCC3)c(F)c2)c1 [Vidofludimus]	>3.07	>5.35		> 5000	
470	2720	CCn1c(=O)c(-c2cc[nH]n2)cc2c(C)nc(N)nc21 [Voxtalisib]	4.83	0.83	2260		
		AZD4547	8.78				

Molecule	EC50 (AdV3) [nM]	EC50 (AdV5) [nM]	Selective Index AdV3 (AdV3)	Selective Index AdV5 (AdV5)	CC50 at 48 h (in vitro) [nM]	CC50 at 48 h (in vitro; Vero cells) [nM]	CC50 (Vero cells) [nM]
CO[C@H]1/C=C\C=C(/C)C(=O)NC2=CC(=O)C(NCCN(C)C)=C(C[C@@H](C)C[C@H](OC)[C@H](O)[C@@H](C)/C=C(\C)[C@@H]1OC(N)=O)C2=O [17-DMAG]	220	430	>23.20	>11.58	> 5000		
CNC(=O)CN1CCC(Oc2cc3c(Nc4cccc(Cl)c4F)ncnc3cc2OC)CC1 [AZD8931]	50	> 5000	>96.15		> 5000		
O=C1c2ccc(Nc3ccc(F)cc3F)cc2CCc2ccc(OC[C@H](O)CO)cc21 [Skepinone-L]	180	2560	11.84	0.83	2140		
CNC(=O)c1cc(Oc2ccc(NC(=O)Nc3ccc(Cl)c(C(F)(F)F)c3)cc2)ccn1 [Sorafenib Tosylate]	1270	3870	4.67	1.53	> 5000		
